The source of these data is ChEMBL document CHEMBL2029307, “Identification of aryl dihydrouracil derivatives as palm initiation site inhibitors of HCV NS5B polymerase” (Bioorg Med Chem Lett, 2012).

Data set [1] relates to Hepatitis C virus. Kind of data set: Inhibition of HCV genotype 1b patient isolate recombinant NS5B polymerase expressed in Escherichia coli DH5alpha assessed as inhibition of [3H]UTP incorporation after 2 hrs by scintillation counting. Details: species or system Hepatitis C virus subtype 1b.
The nature of data set [2]: Cytotoxicity against human HuH7 cells by MTT assay. It counts as cell-based, Huh-7. The following applies: read-out: TD50 (the source's name). (In general: Tetrazolium assays rely on reduction of a dye to a coloured formazan, in cell work by metabolically active cells.)
For data set [3], the system named is Hepatitis C virus. As to the kind of experiment: Antiviral activity against HCV genotype 1b infected in HuH7 cells by SEAP reporter gene assay. The following applies: Huh-7. It counts as functional, organism-based, Hepacivirus hominis.
Data set [4] is described as follows: Inhibition of HCV genotype 2a NS5B polymerase assessed as inhibition of [3H]UTP incorporation after 2 hrs by scintillation counting. Details: species or system Hepatitis C virus subtype 2a.
Data set [5] can be described thus: Inhibition of HCV genotype 1a H77 recombinant NS5B polymerase expressed in Escherichia coli DH5alpha assessed as inhibition of [3H]UTP incorporation after 2 hrs by scintillation counting. Details: species or system Hepatitis C virus (isolate H77).
Data set [6] has as its system Hepatitis C virus subtype 1a. As to the kind of experiment: Resistance ratio of IC50 for HCV genotype 1a NS5B polymerase M414T mutant to IC50 for HCV genotype 1a wildtype NS5B polymerase.
Data set [7] relates to Hepatitis C virus subtype 1a. Kind of data set: Resistance ratio of IC50 for HCV genotype 1a NS5B polymerase P495A mutant to IC50 for HCV genotype 1a wildtype NS5B polymerase.
Data set [8] in a line: Inhibition of HCV genotype 2b NS5B polymerase assessed as inhibition of [3H]UTP incorporation after 2 hrs by scintillation counting. Details: species or system Hepatitis C virus subtype 2b.
Data set [9] relates to Hepatitis C virus subtype 1a. As to the kind of experiment: Resistance ratio of IC50 for HCV genotype 1a NS5B polymerase M423T mutant to IC50 for HCV genotype 1a wildtype NS5B polymerase.
The nature of data set [10]: Inhibition of HCV genotype 1b BK recombinant NS5B polymerase expressed in Escherichia coli DH5alpha assessed as inhibition of [3H]UTP incorporation after 2 hrs by scintillation counting. Details: species or system Hepatitis C virus (isolate BK).
The nature of data set [11]: Inhibition of HCV genotype 3a NS5B polymerase assessed as inhibition of [3H]UTP incorporation after 2 hrs by scintillation counting. Details: species or system Hepatitis C virus subtype 3a.
In data set [12] the test system is Hepatitis C virus subtype 1a. As to the kind of experiment: Resistance ratio of IC50 for HCV genotype 1a NS5B polymerase T448Y mutant to IC50 for HCV genotype 1a wildtype NS5B polymerase.
Data set [13] relates to Hepatitis C virus subtype 1a. Kind of data set: Resistance ratio of IC50 for HCV genotype 1a NS5B polymerase C316Y mutant to IC50 for HCV genotype 1a wildtype NS5B polymerase.

Usually IC50 stands for the point on the concentration scale where inhibition reaches its midpoint. Regarding `COc1ccc(N2CCC(=O)NC2=O)cc1C(C)(C)C`, in the data set on Hepatitis C virus [1], the IC50 was found to be 6.4 µM.

As for `COc1cc(N)c(N2CCC(=O)NC2=O)cc1C(C)(C)C`, in the data set with Hepatitis C virus [1], the IC50 was 1.7 µM.

Turning to `CC(C)(C)c1cc(N2CCC(=O)NC2=O)ccc1O`, in the data set on Hepatitis C virus [1], the 50% inhibitory concentration (IC50) is 7.6 µM.

`COc1c(Br)cc(N2CCC(=O)NC2=O)cc1C(C)(C)C`: in the data set with Hepatitis C virus [1], the IC50 was found to be 7.4 µM.

Regarding `COc1cc(N(C)C)c(N2CCC(=O)NC2=O)cc1C(C)(C)C`, in the data set on Hepatitis C virus [1], the IC50 was found to be 6.7 µM.

`O=C1CCN(c2cccc(C(F)(F)F)c2)C(=O)N1`: in the data set on Hepatitis C virus [1], the half-maximal inhibitory concentration (IC50) is > 200 µM.

Regarding `CC(C)(C)c1cccc(N2CCC(=O)NC2=O)c1`, the half-maximal inhibitory concentration (IC50) with Hepatitis C virus [1] came to 47 µM.

`COc1c(Br)cc(N2CCC(=O)N(C)C2=O)cc1C(C)(C)C`: the half-inhibitory concentration (IC50) in the data set on Hepatitis C virus [1] was > 200 µM.

The EC50 is the concentration needed to bring the measured effect to its halfway point. For the molecule `COc1cc([N+](=O)[O-])c(N2CCC(=O)NC2=O)cc1C(C)(C)C`, the CC50 in data set [2] was > 50 µM. This molecule showed an EC50 in the data set with Hepatitis C virus [3] of 0.84 µM. Moreover, the half-maximal inhibitory concentration (IC50) in data set [4] was > 200 µM; in data set [5], 0.58 µM; with Hepatitis C virus [1], 0.4 µM; in [8], > 200 µM; in data set [10], 0.36 µM; in [11], > 200 µM. For the same molecule, the Ratio IC50 in data set [6] was 24; in data set [7], 5; in [9] it was 5; in [12] it was 41; in data set [13] it was > 100.

Regarding `COc1cc(NC(C)=O)c(N2CCC(=O)NC2=O)cc1C(C)(C)C`, the IC50 with Hepatitis C virus [1] was found to be 6.5 µM.
